As a reminder, the Ki is the equilibrium dissociation constant of an inhibitor or competing ligand from its target.

In the assay the target is T1, Dihydrofolate reductase (Homo sapiens, UniProt P00374).
T1 sequence (P00374 whole entry): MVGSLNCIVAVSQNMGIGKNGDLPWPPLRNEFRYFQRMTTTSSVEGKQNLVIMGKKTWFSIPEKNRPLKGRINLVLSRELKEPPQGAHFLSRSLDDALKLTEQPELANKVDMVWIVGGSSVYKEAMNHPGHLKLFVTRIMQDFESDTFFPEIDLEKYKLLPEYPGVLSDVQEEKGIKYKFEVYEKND
In words: Inhibition of human DHFR in presence of DHF and NADPH by UV-vis spectrometry by Lineweaver-Burk plot analysis.

Each structure is given as a SMILES string.

On to `N[C@H](Cc1c[nH]c2ccccc12)C(=O)O` [(2R)-2-amino-3-(1H-indol-3-yl)propanoic acid], for which the Ki turned out to be 880 µM.
In the case of `Nc1ccnc(N)n1` [Diaminopyrimidine], the Ki came out at 180 µM.

For the origin of these results see BindingDB's records for doi:10.1021/acs.jmedchem.0c00546 (University of Tennessee, 2020).
